In PMC10382584, “Macrocyclization of linear molecules by deep learning to facilitate macrocyclic drug candidates discovery” (Nature Communications, 2023):
Where “and” joins values, the source holds several entries; their conditions need not be identical. Equal values may be shown once. Read-outs that look alike come from different tables or passages of the source.

Columns and labels:
HEL cells = assay: Cell proliferation assay (CCK-8), HEL cells; format: cell-based, human
SET-2 cells = assay: Cell proliferation assay (CCK-8), SET-2 cells; format: cell-based, human; conditions: for Inhibition (%): single wells of replicate 1 and replicate 2
DSS-induced colitis mice = assay: In vivo efficacy study, DSS-induced colitis model; design: species or system male BALB/c mice; conditions: Fedratinib 10 mg/kg; for DAI score (Fig. 6b) / Body weight (Fig. 6a): individual mice
Description: Model mice were divided into four groups and eight mice were included in each group on day 8. […] Meanwhile, solvent was given intragastrically to the control group and model group. On day 15, the mice were sacrificed, and the length and weight of each colon were measured.
Body weight, the stool consistency, and the presence of blood in feces were recorded daily in the morning. […] The maximum score was 9, which was the sum of the scores. About 1-cm colon tissue, which is 0.5 cm away from the anal margin, was collected, and the ileocecal area was used for histopathological examination. After H&E staining, the tissues were scored under single-blind conditions to evaluate the levels of inflammation and tissue damage in the colons following the criteria proposed by ref. [62]. Statistical analyses were performed using SPSS v24.0.

[1] = Chemical stability in DMSO stock solution (HPLC purity); format: physicochemical; conditions: mean±SD
Excerpt: compounds were formulated in the solubilizing vehicle (5% DMSO/30% PEG400/65% […]
safety to the mice in the test.
6. What was the sample dissolved in for the in vitro and in vivo experiments? Response: The solvent information for the in vitro and in vivo experiments has been added in the revised manuscript. […]
7. Was the stability of the different compounds assessed and compared to Fedratinib? This is generally a critical point in macrocyclic studies. […]
in DMSO stock solution. Test compounds were incubated at room temperature and 60 ℃, respectively, for 72 h, and their purities (%) were determined using HPLC equipped with a CORTECS C18 column (4.6*50 mm, 2.7 μm particle size) and a UV/VIS detector setting of λ=210 nm. All co mpounds were eluted with the two solvent systems ([…] as organic phase in Method I and CH3OH as organic phase in Method II) at a flow rate of 0.3 ml/min. Each experiment repeated for three times and the results are represented as mean±SD.
Ta b e l R 1 . Comparison of chemical stability of different compounds at room temperature and 60 ℃, respectively.

In vivo PK study in mice = conditions: male, BALB/c, mouse, plasma, 5 mg/kg
Description: The mice were separately administered to a group of three mice per time point for intravenous (5 mg/kg) or oral administration (5 mg/kg). […] Then the samples were separated by centrifugation and analyzed by LC-MS/MS (XEVO TQ-S) to determine the plasma drug concentrations. The PK parameters were calculated using the noncompartment model with Phoenix WinNonLin v8.0. The animal experimental procedures were approved by the Medicine Research Ethics Committee of Hangzhou Leading Pharmatech Co., Ltd.
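For Cmax in this document: mice dosed intravenously or orally, three animals per time point, plasma drug levels quantified by LC-MS/MS, PK parameters derived by noncompartmental analysis in Phoenix WinNonLin.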
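For Tmax in this document: mice dosed intravenously or orally, three animals per time point, plasma drug levels quantified by LC-MS/MS, PK parameters derived by noncompartmental analysis in Phoenix WinNonLin.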

Cc1cnc(Nc2ccc(OCCN3CCCC3)cc2)nc1Nc1cccc(S(=O)(=O)NC(C)(C)C)c1 [Fedratinib]
Inhibition (%) (HEL cells; HEL cell lines, 0.0977 μM, single wells, replicates 1 and 2): 3.834% and 2.092% and -5.316% and -2.068% and -2.146% and 0.251%
Inhibition (%) (HEL cells; HEL cell lines, 0.1953 μM, single wells, replicates 1 and 2): 5.577% and 4.096% and -7.320% and -6.244% and 7.056% and 1.643%
Inhibition (%) (HEL cells; HEL cell lines, 0.3906 μM, single wells, replicates 1 and 2): 16.296% and 7.233% and 2.004% and -5.316% and 4.195% and -1.991%
Inhibition (%) (HEL cells; HEL cell lines, 0.7813 μM, single wells, replicates 1 and 2): 26.492% and 16.296% and 14.205% and 10.690% and 13.319% and 1.875%
Inhibition (%) (HEL cells; HEL cell lines, 1.5625 μM, single wells, replicates 1 and 2): 66.754% and 58.911% and 59.608% and 37.908% and 40.692% and 44.790%
Inhibition (%) (HEL cells; HEL cell lines, 3.1250 μM, single wells, replicates 1 and 2, 3.125 µM): 88.628% and 87.669% and 91.881% and 90.412% and 89.871%
Inhibition (%) (HEL cells; HEL cell lines, 6.2500 μM, single wells, replicates 1 and 2, 6.25 µM): 90.893% and 89.499% and 94.355% and 93.737% and 94.510%
Inhibition (%) (HEL cells; HEL cell lines, 12.5000 μM, single wells, replicates 1 and 2, 12.5 µM): 91.590% and 91.503% and 95.902% (2×) and 96.056%
IC50 (HEL cells; HEL cell lines, single-replicate fits, read-out: IC50/μM (individual replicates), cellular antiproliferative activity): 1.38 µM
IC50 (HEL cells; Homo sapiens, HEL, 72 h, HEL cells, 72 h, mean ± SD, read-out: Cellular Antiproliferative Activity (IC50) HEL): 1.34 ± 0.06 µM
inhibition at 3.125 µM (HEL cells; Homo sapiens, HEL, HEL cell lines, 3.1250 μM, single wells, replicates 1 and 2): 90.5%
inhibition at 6.25 µM (HEL cells; Homo sapiens, HEL, HEL cell lines, 6.2500 μM, single wells, replicates 1 and 2): 92.1%
inhibition at 12.5 µM (HEL cells; Homo sapiens, HEL, HEL cell lines, 12.5000 μM, single wells, replicates 1 and 2): 93.2%
inhibition at 25 µM (HEL cells; Homo sapiens, HEL, HEL cell lines, […], single wells, replicates 1 and 2): 94.5%
IC50 (HEL cells; Homo sapiens, HEL, HEL cell lines, mean of 2 replicates, read-out: IC50/μM mean, cellular antiproliferative activity): 1.34 µM
IC50 (HEL cells; Homo sapiens, HEL, HEL cell lines, mean ± sd of 2 replicates, read-out: IC50/μM mean ± sd, cellular antiproliferative activity): 1.34 ± 0.06 µM
IC50 (HEL cells; Homo sapiens, HEL, HEL cell lines, single-replicate fits, read-out: IC50/μM (individual replicates), cellular antiproliferative activity): 1.29 µM
IC50 (SET-2 cells; Homo sapiens, SET-2, 72 h, SET-2 cells, 72 h, mean ± SD, read-out: Cellular Antiproliferative Activity (IC50) SET-2): 1.12 ± 0.08 µM
IC50 (SET-2 cells; Homo sapiens, SET-2, SET-2 cell lines, mean of two replicates, read-out: IC50/μM mean): 1.12 µM
IC50 (SET-2 cells; Homo sapiens, SET-2, SET-2 cell lines, mean ± sd of two replicates, read-out: IC50/μM mean ± sd): 1.12 ± 0.08 µM
IC50 (SET-2 cells; Homo sapiens, SET-2, SET-2 cell lines, value of each single replicate, read-out: IC50/μM): 1.07 µM
Inhibition (%) (SET-2 cells; SET-2 cell lines, C 0.0977 μM): 12.0389% and 5.1759% and -0.6577% and 17.763% and 22.009% and 18.591%
Inhibition (%) (SET-2 cells; SET-2 cell lines, C 0.1953 μM): 22.4478% and 11.8101% and 6.6629% and 13.309% and 23.874% and 25.324%
Inhibition (%) (SET-2 cells; SET-2 cell lines, C 0.3906 μM): 33.6574% and 13.6403% and 14.6697% and 30.399% and 33.402% and 33.506%
Inhibition (%) (SET-2 cells; SET-2 cell lines, C 0.7813 μM): 33.8862% and 39.7198% and 32.9711% and 35.163% and 37.960% and 48.110%
Inhibition (%) (SET-2 cells; SET-2 cell lines, C 1.5625 μM): 69.3452% and 65.5705% and 67.2862% and 30.399% and 43.553% and 55.671%
Inhibition (%) (SET-2 cells; SET-2 cell lines, C 3.1250 μM): 88.2185% and 85.2445% and 86.3883% and 75.039% and 80.010% and 81.357%
Inhibition (%) (SET-2 cells; SET-2 cell lines, C 6.2500 μM): 86.3883% and 85.8164% and 88.9048% and 71.725% and 72.139% and 76.385%
Inhibition (%) (SET-2 cells; SET-2 cell lines, C 12.5000 μM): 97.7123% and 97.3692% (2×) and 89.643% (2×) and 91.093%
IC50 (SET-2 cells; SET-2 cell lines, value of each single replicate, read-out: IC50/μM): 1.16 µM
histological scores (H&E, Ameho criteria) (DSS-induced colitis mice; 3.5% DSS colitis mice, compound 3 5 mg/kg): lower
body weight change (DSS-induced colitis mice; 3.5% DSS colitis mice, compound 3 5 mg/kg, intragastric, day 8 to day 14): alleviate the decrease of body weight
DAI score (Fig. 6b) (DSS-induced colitis mice; day 0): 0
Body weight (Fig. 6a) (DSS-induced colitis mice; day 0, in g (unit assumed)): 22.2 and 22.7 and 23.9 and 22.6 and 19.9 and 23.6 and 20.6 and 23.1
DAI score (Fig. 6b) (DSS-induced colitis mice; day 1): 1 (4×) and 0 (4×)
Body weight (Fig. 6a) (DSS-induced colitis mice; day 1, in g (unit assumed)): 21.3 and 24.2 and 23.6 and 23.8 and 21.7 and 23.2 and 20.9 and 22
DAI score (Fig. 6b) (DSS-induced colitis mice; day 2): 0 (3×) and 1 (5×)
Body weight (Fig. 6a) (DSS-induced colitis mice; day 2, in g (unit assumed)): 22.6 and 23.8
DAI score (Fig. 6b) (DSS-induced colitis mice; day 3): 0 (5×) and 1 (3×)
Body weight (Fig. 6a) (DSS-induced colitis mice; day 4): 21.8 and 22.7 and 23.6 (2×) and 22.3 and 21.7 and 19.8 and 23.2
DAI score (Fig. 6b) (DSS-induced colitis mice; day 4): 1 (5×) and 3 (2×) and 0
DAI score (Fig. 6b) (DSS-induced colitis mice; day 5): 0 (3×) and 3 (2×) and 1 and 4 and 2
Body weight (Fig. 6a) (DSS-induced colitis mice; day 5, in g (unit assumed)): 22 and 21.8 and 23.1 and 21 and 21.9 and 23.6 and 18.9 and 22.7
DAI score (Fig. 6b) (DSS-induced colitis mice; day 6): 1 (4×) and 6 and 7 and 2 and 5
Body weight (Fig. 6a) (DSS-induced colitis mice; day 6, in g (unit assumed)): 22.1 and 20.1 and 22.6 and 19.3 and 21.5 and 23.6 and 17.1 and 20.5
Body weight (Fig. 6a) (DSS-induced colitis mice; day 7): 21.8 (2×) and 19 and 22.5 and 18.2 and 23.9 and 16 and 18.3
DAI score (Fig. 6b) (DSS-induced colitis mice; day 7): 2 (2×) and 7 (3×) and 0 and 3 and 6
DAI score (Fig. 6b) (DSS-induced colitis mice; day 8): 0 (5×) and 3 (2×) and 6
Body weight (Fig. 6a) (DSS-induced colitis mice; day 8, in g (unit assumed)): 22.3 and 18.8 and 23.8 and 18.6 and 21.7 and 24 and 15.6 and 17.2
DAI score (Fig. 6b) (DSS-induced colitis mice; day 9): 0 (5×) and 3 (2×) and 1
Body weight (Fig. 6a) (DSS-induced colitis mice; day 9, in g (unit assumed)): 22.3 and 19.4 and 23.7 and 19.1 and 19.3 and 24.2 and 15.3
DAI score (Fig. 6b) (DSS-induced colitis mice; day 10): 2 (2×) and 1 (3×) and 0 (2×)
Body weight (Fig. 6a) (DSS-induced colitis mice; day 10, in g (unit assumed)): 21.6 and 18.4 and 23.8 and 19.7 and 19 and 23.6 and 15.4
DAI score (Fig. 6b) (DSS-induced colitis mice; day 11): 0 (5×) and 1 and 2
Body weight (Fig. 6a) (DSS-induced colitis mice; day 11, in g (unit assumed)): 21.9 and 18.6 and 23.5 and 20.2 and 18.7 and 23.6 and 16
DAI score (Fig. 6b) (DSS-induced colitis mice; day 12): 0 (5×) and 1
Body weight (Fig. 6a) (DSS-induced colitis mice; day 12, in g (unit assumed)): 22.2 and 19.1 and 24.1 and 19.9 and 19.4 and 23.8 and 16
Body weight (Fig. 6a) (DSS-induced colitis mice; day 13, in g (unit assumed)): 21.9 and 19.8 and 24.2 and 20.4 and 20.1 and 24 and 16.1
Body weight (Fig. 6a) (DSS-induced colitis mice; day 14, in g (unit assumed)): 22.6 and 20.3 and 24.5 and 20.4 and 20.8 and 24.1 and 16.5
HE staining score (Fig. 6d) (DSS-induced colitis mice; individual colon tissues (n = 5)): 1 and 3 and 0
symptoms in DSS-induced murine colitis (DSS-induced colitis mice; compound 3 5 mg/kg): ameliorate the symptoms
purity after incubation in DMSO stock solution ([1]; 60 ℃, 0 h): 98.91±0.10%
purity after incubation in DMSO stock solution ([1]; 60 ℃, 2 h): 98.91±0.10%
purity after incubation in DMSO stock solution ([1]; 60 ℃, 24 h): 98.89±0.17%
purity after incubation in DMSO stock solution ([1]; 60 ℃, 48 h): 100.00±0.00%
purity after incubation in DMSO stock solution ([1]; 60 ℃, 72 h): 98.96±0.15%
purity after incubation in DMSO stock solution ([1]; Room Temperature, 0 h): 99.36±0.06%
purity after incubation in DMSO stock solution ([1]; Room Temperature, 2 h): 99.11±0.14%
purity after incubation in DMSO stock solution ([1]; Room Temperature, 24 h): 99.99±0.00%
purity after incubation in DMSO stock solution ([1]; Room Temperature, 48 h): 99.08±0.02%
purity after incubation in DMSO stock solution ([1]; Room Temperature, 72 h): 99.57±0.06%
AUC(0-inf) (In vivo PK study in mice; iv): 227 ng·h/mL
Cmax (In vivo PK study in mice; iv): 275 ng/mL
Tmax (In vivo PK study in mice; iv): 4.98 min
half-life (In vivo PK study in mice; iv): 18 min
bioavailability (In vivo PK study in mice; oral): 11.7%
AUC(0-inf) (In vivo PK study in mice; po): 50.2 ng·h/mL
Cmax (In vivo PK study in mice; po): 6.81 ng/mL
Tmax (In vivo PK study in mice; po): 60 min
half-life (In vivo PK study in mice; po): 282 min
